Measured values published in US20180163178A1, “AUF1 ENCODING COMPOSITIONS FOR MUSCLE CELL UPTAKE, SATELLITE CELL POPULATIONS, AND SATELLITE CELL MEDIATED MUSCLE GENERATION” (priority 2015, published 2018).

Key:
[1] = system: PAX7+ satellite cell population
Experimental: (§1) Male and female mice 4-6 months of age were injected by 20 uL 1.2% BaCl2 in saline directly to the left TA muscle. Right TA muscle was left uninjured. Mice were monitored and sacrificed by protocol for 1-30 days post-injection. 2 mice per genotype per time point were studied.
Male and female mice 4-6 months of age had their TA removed and preserved in OCT. Skeletal muscle samples were prepared as previously described (Bernet et al., “p38 MAPK Signaling Underlies a Cell-autonomous Loss of Stem Cell Self-renewal in Skeletal Muscle of Aged Mice,” Nature Medicine 20:265-271 (2014), which is hereby incorporated by reference in its entirety). Samples were post-fixed in 4% paraformaldehyde and blocked in 3% BSA in TBS-T. Primary antibodies were incubated at 4° C. overnight. Alexa Fluor donkey 488, 555, and 647 secondary antibodies were used at 1:500 and incubated for 1 hour at room temperature. Slides were sealed with Vectashield with DAPI. The following antibody dilutions were used: rat antibody to Laminin (Sigma, L0663, 1:250), mouse antibody to PAX7 (Santa Cruz Biotechnology, SC-81648, 1:500), goat antibody to hnRNPD (Santa Cruz Biotechnology, SC-22368, 1:250).
Images were acquired using a Zeiss LSM 700 confocal microscope, primarily with the 20× lens. Images were processed and scored using ImageJ64. If needed, color balance was adjusted linearly for the entire image and all images in experimental set. All images were quantified based on field of view. At least 5 images per experimental animal and at least 2 animals per genotype were used for all experiments.
(§2) KO male and female mice 4 months of age were given an IP injection with 25 mg/kg SB-3CT (Sigma-Aldrich) every 24 h, starting 24 h prior to BaCl2 injury with MMPSense injection. Three mice per treatment were analyzed, then means and standard deviations calculated. Data were analyzed with an unpaired t-test.

MMP9 = MMP9 (Mus musculus, UniProt P41245); settings: auf1 KO mice
MMP9, sequence (P41245 108-730): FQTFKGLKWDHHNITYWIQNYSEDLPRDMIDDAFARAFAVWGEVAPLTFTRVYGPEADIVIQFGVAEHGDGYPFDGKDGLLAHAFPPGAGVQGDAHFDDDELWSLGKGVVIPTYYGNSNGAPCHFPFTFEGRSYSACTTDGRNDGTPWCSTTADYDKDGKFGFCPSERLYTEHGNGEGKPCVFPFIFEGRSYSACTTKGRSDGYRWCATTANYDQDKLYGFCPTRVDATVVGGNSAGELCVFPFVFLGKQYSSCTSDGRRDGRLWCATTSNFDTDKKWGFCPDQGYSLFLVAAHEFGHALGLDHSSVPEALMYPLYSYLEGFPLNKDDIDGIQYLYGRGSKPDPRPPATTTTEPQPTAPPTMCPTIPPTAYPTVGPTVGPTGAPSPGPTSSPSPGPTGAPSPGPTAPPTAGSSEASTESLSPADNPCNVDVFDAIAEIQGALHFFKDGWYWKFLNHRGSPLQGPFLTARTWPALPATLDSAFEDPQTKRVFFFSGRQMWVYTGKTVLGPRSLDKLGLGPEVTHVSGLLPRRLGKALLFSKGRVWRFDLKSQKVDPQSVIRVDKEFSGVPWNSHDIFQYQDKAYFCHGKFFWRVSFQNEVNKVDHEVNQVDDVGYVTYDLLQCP
Experimental: as §1
Data were analyzed with an unpaired t-test.
as §2

Q: With `O=S(=O)(CC1CS1)c1ccc(Oc2ccccc2)cc1` (centres unmarked) [SB-3CT] as the molecule, how does the “expansion of the PAX7+ satellite cell population (FIG. 11C)” value ([1]; SB-3CT treated auf1 KO mice, 7 days post-injury) read?
A: significant increased expansion

Q: What about the “increase in the PAX7+ satellite cell population (FIG. 11D)” value ([1]; auf1 KO mice, SB-3CT treatment, 7 days post-injury, vs untreated KO) of the same molecule?
A: ~4 fold

Q: And the muscle wound repair ([1]; injured auf1 KO mice, SB-3CT treatment)?
A: restoration of muscle wound repair

Q: What about the “muscle fiber morphology (FIG. 11C)” value ([1]; injured, SB-3CT treated auf1 KO mice) of the same molecule?
A: near-normal muscle fibers were evident

Q: What about the “Laminin expression (FIG. 11C)” value ([1]; injured, SB-3CT treated auf1 KO mice, 7 days post-injury) of the same molecule?
A: strongly increased

Q: What about the “reduction in MMP9 activity (bioluminescence analysis, FIG. 11B)” value (MMP9; SB-3CT IP daily from 24 h prior to BaCl2 TA injury, injured TA 24 h post-injury, vs untreated KO) of the same molecule?
A: > 5 fold

Q: And the “MMP9 activity at the site of IP injection (FIG. 11A)” value (MMP9; SB-3CT IP daily, IVIS imaging)?
A: near complete extinction of MMP9 activity

Q: What about the “MMP9 activity in the injured TA muscle (FIG. 11A)” value (MMP9; SB-3CT IP daily, IVIS imaging 24 h after injury) of the same molecule?
A: significantly reduced MMP9 activity
